Like-named read-outs stand apart in the source and are kept apart here.
Experiments:
MV-Luc [1] = assay: microbe, parasite or virus in culture; type: cell-based, measles virus (MV); conditions: for IC50: Measles morbillivirus, HEK-293T, 24 h, read-out: IC50 (μM), inhibition of MV-Luc; for antiviral potency relative to DD363: MV-Luc IC50, fold higher than for DD363
in vitro = conditions: human
[2] = tested on: ISRE-luciferase reporter gene; assay: ISRE-luciferase response to MV infection in STING-37 cells; conditions: 30 μM added 9 h after infection, read 16 h later
IFN-λ2/3 = assay: RT-qPCR gene expression in STING-37 cells: IFN-λ2/3; type: cell-based, human; conditions: 30 μM, 24 h, DMSO None = 1
Experimental: (§1) To further document the consequences of DD778 treatment on the cellular response to ssRNA, mRNA levels for RIG-I, MDA5, oligoadenylate synthase-like protein (OASL), IFN-α4, IFN-β, IFN-λ1, and IFN-λ2/3 were determined by reverse transcription-quantitative PCR (RT-qPCR). […] Furthermore, the effects of DD778 on the expression of these genes could be reversed by the addition of uridine in culture medium. […] In parallel, we measured in culture supernatants the concentrations of IFN-β, IFN-λ1, IFN-λ2/3, and interferon-inducible protein of 10 kDa (IP-10), which is a well-characterized IFN-inducible chemokine (Fig. 7C). […] This illustrates an original mechanism by which cells can communicate with neighbors on their metabolic status.
(§2) Upper images correspond to representative experiments.

RIG-I [3] = assay: RT-qPCR gene expression in STING-37 cells: RIG-I; type: cell-based, human; conditions: 30 μM, 24 h, DMSO None = 1
Experimental: as §1, §2

MV-Luc [4] = assay: Complementation of MV-Luc inhibition with uridine, DHO or orotate; conditions: 24 h
IFN biological activity = IFN biological activity of culture supernatants on fresh STING-37 cells; conditions: no ssRNA, supernatants at 48 h
[5] = tested on: de novo pyrimidine biosynthesis; assay: Intracellular nucleoside/nucleotide and UDP-sugar levels by HPLC; type: cell-based, human
MDA5 [6] = assay: RT-qPCR gene expression in STING-37 cells: MDA5; type: cell-based, human; conditions: 30 μM, 24 h, DMSO None = 1
Experimental: as §1, §2

[7] = tested on: CHIKV expressing Renilla luciferase; assay: microbe, parasite or virus in culture; type: cell-based; conditions: Chikungunya virus, HEK-293T, 24 h, read-out: IC50, CHIKV Renilla luciferase
[8] = tested on: ISRE-luciferase reporter gene; assay: ISRE-luciferase induction in STING-37 reporter cells; conditions: STING-37 cells, 24 h, increasing doses
IFN-β = assay: RT-qPCR gene expression in STING-37 cells: IFN-β; type: cell-based, human; conditions: 30 μM, 24 h, DMSO None = 1
Experimental: as §1, §2

IFN-α4 = assay: RT-qPCR gene expression in STING-37 cells: IFN-α4; type: cell-based, human; conditions: 30 μM, 24 h, DMSO None = 1
Experimental: as §1, §2

OASL = assay: RT-qPCR gene expression in STING-37 cells: OASL; type: cell-based, human; conditions: 30 μM, 24 h, DMSO None = 1
Experimental: as §1, §2

RIG-I [9] = assay: Western blotting of RIG-I in STING-37 cells
MDA5 [10] = assay: Western blotting of MDA5 in STING-37 cells
[11] = tested on: IFN-β, IFN-λ1, IFN-λ2/3, and IP-10; assay: Cytokines in culture supernatants, LEGENDplex
IFN-λ1 = assay: RT-qPCR gene expression in STING-37 cells: IFN-λ1; type: cell-based, human; conditions: 30 μM, 24 h, DMSO None = 1
Experimental: as §1, §2

DHODH = tested on: DHODH; design: method as in PMID 20183850; conditions: read-out: IC50 on the recombinant enzyme; cited from earlier work
MV-Luc [12] = tested on: MV-Luc; design: method as in PMID 25558988; conditions: HEK-293T cells; previously reported ref 9; read-out: IC50, inhibition of MV-Luc; cited from earlier work
[13] = MV MOI 2, 30 μM added at 9 h, 39 h more

Cc1[nH]c2ccccc2c1C1c2c(c3cc(Cl)ccc3oc2=O)OC1[N+](=O)[O-] (centres unmarked) [JP25]
IC50 (MV-Luc [1]): 47 ± 7 µM
CC50 at 24 h (in vitro): > 50 µM

Cn1cc(C2c3c(c4cc(Cl)ccc4oc3=O)OC2[N+](=O)[O-])c2ccccc21 (centres unmarked) [JP10]
IC50 (MV-Luc [1]): > 50 µM
CC50 at 24 h (in vitro): > 50 µM

Cc1ccc2oc(=O)c3c(c2c1)OC([N+](=O)[O-])C3c1c[nH]c2ccc(Br)cc12 (centres unmarked) [DD784]
IC50 (MV-Luc [1]): 40 ± 7 µM
CC50 at 24 h (in vitro): > 50 µM

O=C1C(=O)c2ccccc2C2=C1C(c1c[nH]c3ccccc13)C([N+](=O)[O-])O2 (centres unmarked) [DD785]
IC50 (MV-Luc [1]): > 50 µM
CC50 at 24 h (in vitro): > 50 µM

O=C1CCCc2occ(-c3cccc(Cl)c3)c21 [DD264, reference compound]
IC50 (MV-Luc [1]): 15 ± 2 µM
CC50 at 24 h (in vitro): > 80 µM

O=c1oc2ccc(Cl)cc2c2c1C(c1c[nH]c3ccccc13)C([N+](=O)[O-])O2 (centres unmarked) [DD771]
antiviral potency relative to DD363 (MV-Luc [1]): 2- to 9 fold
IC50 (MV-Luc [1]): 1.7 ± 0.4 µM
CC50 at 24 h (in vitro): > 50 µM

Cc1ccc2oc(=O)c3c(c2c1)OC([N+](=O)[O-])C3c1c[nH]c2ccccc12 (centres unmarked) [DD778]
cellular response to MV infection (ISRE-luciferase) [2]: efficiently boosted
IFN-λ2/3 expression level (RT-qPCR) (IFN-λ2/3; ssRNA (60 ng/well)): 7±1
IFN-λ2/3 expression level (RT-qPCR) (IFN-λ2/3; ssRNA (120 ng/well)): 55±12
IFN-λ2/3 expression level (RT-qPCR) (IFN-λ2/3; ssRNA: None): 1.4±0.7
RIG-I expression level (RT-qPCR) (RIG-I [3]; ssRNA (60 ng/well)): 12±5
RIG-I expression level (RT-qPCR) (RIG-I [3]; ssRNA (120 ng/well)): 57±9
RIG-I expression level (RT-qPCR) (RIG-I [3]; ssRNA: None): 1.3±0.4
effect of DHO on viral replication in treated cells (MV-Luc [4]; DD778 10 μM, DHO 3 mM): no effect
effect of uridine and orotate on viral replication in treated cells (MV-Luc [4]; DD778 10 μM, uridine 130 μM, orotate 3 mM): restore viral replication
IFN activity in supernatants of cells treated with compound alone (IFN biological activity): did not show any IFN activity
intracellular UDP-Gal level ([5]; HEK-293T cells treated 24 h): collapsed
intracellular UDP-GalNac level ([5]; HEK-293T cells treated 24 h): maintained at high levels
purine levels (A and G) ([5]; HEK-293T cells treated 24 h): unaffected
uridine (U) and cytidine (C) levels ([5]; HEK-293T cells treated 24 h): collapsed
MDA5 expression level (RT-qPCR) (MDA5 [6]; ssRNA (60 ng/well)): 5±1
MDA5 expression level (RT-qPCR) (MDA5 [6]; ssRNA (120 ng/well)): 23±2
MDA5 expression level (RT-qPCR) (MDA5 [6]; ssRNA: None): 1.1±0.1
IC50 [7]: 1.4 ± 0.2 µM
induction of the ISRE-luciferase gene (compound alone) [8]: induced
IFN-β expression level (RT-qPCR) (IFN-β; ssRNA (60 ng/well)): 4±3
IFN-β expression level (RT-qPCR) (IFN-β; ssRNA (120 ng/well)): 17±5
IFN-β expression level (RT-qPCR) (IFN-β; ssRNA: None): 1.5±0.8
IFN-α4 expression level (RT-qPCR) (IFN-α4; ssRNA (60 ng/well)): 1.3±0.7
IFN-α4 expression level (RT-qPCR) (IFN-α4; ssRNA (120 ng/well)): 1.4±0.6
IFN-α4 expression level (RT-qPCR) (IFN-α4; ssRNA: None): 1.3±0.7
antiviral potency relative to DD363 (MV-Luc [1]): 2- to 9 fold
IC50 (MV-Luc [1]): 2.9 ± 0.3 µM
OASL expression level (RT-qPCR) (OASL; ssRNA (60 ng/well)): 17±3
OASL expression level (RT-qPCR) (OASL; ssRNA (120 ng/well)): 111±21
OASL expression level (RT-qPCR) (OASL; ssRNA: None): 3±2
RIG-I protein expression, ssRNA-transfected cells (RIG-I [9]; 30 μM, 48 h): promoted the expression
RIG-I protein expression, MV-infected cells (RIG-I [9]; [13]): boosted
MDA5 protein expression, ssRNA-transfected cells (MDA5 [10]; 30 μM, 48 h): promoted the expression
effects on MDA5 protein expression, MV-infected cells (MDA5 [10]; [13]): limited
expression of IFN-β, IFN-λ1, IFN-λ2/3, and IP-10 in supernatants, ssRNA-stimulated cells ([11]; 30 μM, 120 ng ssRNA, 48 h): increased the expression
IFN-β expression in supernatants, MV-infected cells [11, 13]: not statistically enhanced
expression of IFN-λ1, IFN-λ2/3, and IP-10 in supernatants, MV-infected cells [11, 13]: efficiently increased
IFN-λ1 expression level (RT-qPCR) (IFN-λ1; ssRNA (60 ng/well)): 14±3
IFN-λ1 expression level (RT-qPCR) (IFN-λ1; ssRNA (120 ng/well)): 130±10
IFN-λ1 expression level (RT-qPCR) (IFN-λ1; ssRNA: None): 1.9±0.6
CC50 at 24 h (in vitro): 207 ± 20 µM

O=c1oc2ccc(F)cc2c2c1C(c1c[nH]c3ccccc13)C([N+](=O)[O-])O2 (centres unmarked) [DD776]
antiviral potency relative to DD363 (MV-Luc [1]): 2- to 9 fold
IC50 (MV-Luc [1]): 3.8 ± 0.8 µM
CC50 at 24 h (in vitro): > 50 µM

O=c1oc2ccccc2c(O)c1Cc1c(O)c2ccccc2oc1=O [Dicoumarol, dicoumarol, reference compound]
IC50 (DHODH): 6.6 µM
antiviral effect when culture medium is supplemented with uridine (MV-Luc [4]; uridine 130 μM): fully reversed
induction of the ISRE-luciferase gene (compound alone) [8]: induced
IC50 (MV-Luc [1]): 12 ± 0.3 µM

O=c1oc2ccc(Cl)cc2c2c1C(c1c[nH]c3ccc(Br)cc13)C([N+](=O)[O-])O2 (centres unmarked) [DD783]
IC50 (MV-Luc [1]): 42 ± 7 µM
CC50 at 24 h (in vitro): > 50 µM

Cc1cc2c(c(=O)o1)C(c1c[nH]c3ccccc13)C([N+](=O)[O-])O2 (centres unmarked) [DD786]
induction of the ISRE-luciferase gene (compound alone) [8]: unable to do so
IC50 (MV-Luc [1]): > 50 µM
CC50 at 24 h (in vitro): > 50 µM

O=c1oc2ccccc2c2c1C(c1c[nH]c3ccccc13)CO2 (centres unmarked) [JP42]
IC50 (MV-Luc [1]): 16 ± 3 µM
CC50 at 24 h (in vitro): > 50 µM

CCc1ccc2oc(=O)c3c(c2c1)OC([N+](=O)[O-])C3c1c[nH]c2ccccc12 (centres unmarked) [JP49]
antiviral potency relative to DD363 (MV-Luc [1]): 2- to 9 fold
IC50 (MV-Luc [1]): 5.3 ± 1.1 µM
CC50 at 24 h (in vitro): > 50 µM

C/C(O)=C(\C#N)C(=O)Nc1ccc(C(F)(F)F)cc1 [Teriflunomide, teriflunomide]
IC50 (MV-Luc [12]): 5 µM

Cc1cc2oc(=O)c3c(c2cc1C)OC([N+](=O)[O-])C3c1c[nH]c2ccccc12 (centres unmarked) [DD775]
IC50 (MV-Luc [1]): 1.7 ± 0.4 µM
CC50 at 24 h (in vitro): > 50 µM

O=c1oc2ccccc2c(O)c1C(C[N+](=O)[O-])c1c[nH]c2ccccc12 (centres unmarked) [JP39]
IC50 (MV-Luc [1]): > 50 µM
CC50 (in vitro): > 50 µM

Cn1c(=O)c2c(c3ccccc31)OC([N+](=O)[O-])C2c1c[nH]c2ccccc12 (centres unmarked) [DD787]
IC50 (MV-Luc [1]): 16 ± 3 µM
CC50 at 24 h (in vitro): > 50 µM

Cc1c(-c2ccc(-c3ccccc3F)cc2)nc2ccc(F)cc2c1C(=O)O [Brequinar, brequinar, reference compound]
inhibition of de novo pyrimidine biosynthesis ([5]; submicromolar concentrations, 24 h): inhibited
induction of the ISRE-luciferase gene (compound alone) [8]: induced
IC50 (MV-Luc [12]): 0.04 µM

O=c1oc2ccc(Br)cc2c2c1C(c1c[nH]c3ccccc13)C([N+](=O)[O-])O2 (centres unmarked) [JP52]
antiviral potency relative to DD363 (MV-Luc [1]): 2- to 9 fold
IC50 (MV-Luc [1]): 1.2 ± 0.2 µM
CC50 at 24 h (in vitro): > 50 µM

O=c1oc2ccccc2c2c1C(c1cccc(Cl)c1)C([N+](=O)[O-])O2 (centres unmarked) [DD311]
IC50 (MV-Luc [1]): 47 ± 4 µM
CC50 at 24 h (in vitro): > 50 µM

O=c1oc2ccc(Cl)cc2c2c1C(c1c[nH]c3ccccc13)CO2 (centres unmarked) [JP46]
decrease of antiviral potency relative to DD771 (MV-Luc [1]; MV-Luc IC50): 9 fold
IC50 (MV-Luc [1]): 16 ± 4 µM
CC50 at 24 h (in vitro): 50 ± 8 µM
